Source: patent US20240124503A1, “HETEROAROMATIC PHOSPHONIUM SALTS AND THEIR USE TREATING CANCER” (FLORATEK PHARMA S.A., priority 2021, published 2024)

Columns and labels:
Assay type in all cases: cell-based
ovarian cancer cell = experiment: Cell viability, ovarian cancer cells (panel statement); details: Table 17; read-out: IC50, ovarian cancer cell growth
Procedure: (§1) Antitumor activity of the compounds and doxorubicin as a positive control was assessed by using the CellTiter-Blue Cell Viability Assay (Promega, #G8082) or CellTiter-Glow® Luminescent Cell Viability assay (Promega #G7572) according to the manufacturer's instructions. The compounds were tested at 5 or 6 concentrations in half-log increments (highest concentration 30 μM or 100 μM) in duplicate or triplicate well conditions.
(§2) Tumor cells were grown at 37° C. in a humidified atmosphere with 5% CO2 in RPMI 1640 or DMEM medium, supplemented with 10% (v/v) fetal calf serum and 50 μg/ml gentamicin for up to 20 passages, and were passaged once or twice weekly. Cells were harvested using TrypLE or PBS buffer containing 1 mM EDTA, and the percentage of viable cells was determined using a CASY Model TI cell counter (OMNI Life Science). Cells were harvested from exponential phase cultures, counted and plated in 96 well flat-bottom microtiter plates at a cell density depending on the cell line's growth rate (4,000-20,000 cells/well depending on the cell line's growth rate, up to 60,000 for hematological cancer cell lines) in RPMI 1640 or DMEM medium supplemented with 10% (v/v) fetal calf serum and 50 μg/ml gentamicin (140 μl/well). […] Viability of cells was quantified by the CellTiter-Blue® cell viability assay (Promega G8081) or CellTiter-Glow® Luminescent Cell Viability assay (Promega #G7572). […]

stomach PDX = experiment: Cell viability, stomach PDX (panel statement); details: text summary of Table 22; read-out: IC50, stomach PDX growth
Procedure: (§3) PDX-derived cell cultures were obtained from tumors explanted from mice and isolated by mechanical and enzymatic dissociation. […] Cells were harvested and seeded in 96-wells plates at a density of 1.25 to 5×10^3 cells/well for cytotoxicity assays. Cells were incubated 48 h at 37° C. prior to addition of test molecules and vehicle (DMSO, 0.1%) at desired final concentrations. Cell viability was assessed before drugs' addition (To) and 5 days after test molecules addition by measuring ATP cell content using CellTiter-Glo® Luminescent Cell Viability Assay (Promega) according to the manufacturer's instructions. Luciferase activity was measured on a luminometer (PerkinElmer® EnVision™). Each concentration of compounds was tested in triplicate.
(§4) Viability was calculated as a percentage of ATP value compared to vehicle treated controls.
(§5) For PDX primary cell cultures, the tumour tissue was washed with PBS containing antibiotic-antimycotic and non-tumour tissue and necrotic tumour tissues were separated. The tumour tissue was transferred to a new dish and cut into 1˜2 mm^3 fragments, resuspended in RPMI-1640 medium and centrifuged at 1,200 rpm for 6 min at room temperature. The pelleted material was resuspended with 15 mL of Tumour Cell Digestion Solution and incubated at 37° C. for 1 hour with agitation. […]

esophagus PDX = experiment: Cell viability, esophagus PDX (panel statement); details: text summary of Table 9; read-out: IC50, esophagus PDX growth
Procedure: as §3, §4, §5

pancreatic PDX = experiment: Cell viability, pancreatic PDX (panel statement); details: Table 19; read-out: IC50, pancreatic PDX growth
Procedure: as §3, §4, §5

H69AR = experiment: Cell viability assay, H69AR; details: SCLC doxorubicin resistant cell line H69AR
Procedure: as §1, §2

Panc-1 = experiment: Cell viability assay, Panc-1; details: pancreatic carcinoma cell line Panc-1
Procedure: as §1, §2

SMILES	IC50 (ovarian cancer cell) [µM]	IC50 (stomach PDX) [µM]	IC50 (esophagus PDX) [µM]	IC50 (pancreatic PDX) [µM]	IC50 (H69AR) [µM]	IC50 (Panc-1) [µM]
COc1c(O)ccc2c(=O)c(O)c(-c3ccc(CCCC[P+](c4ccccc4)(c4ccccc4)c4ccccc4)cc3)oc12 [SND190, (4-(4-(3,7-Dihydroxy-8-methoxy-4-oxo-4H1-chromen-2-yl)phenyl)butyl)triphenylphosphonium bromide]	< 20	< 20	< 20	< 10	–	–
O=c1cc(-c2ccc(CCC[P+](c3ccccc3)(c3ccccc3)c3ccccc3)cc2)oc2c(O)c(O)ccc12 [SND200, (3-(4-(7,8-Dihydroxy-4-oxo-4H1-chromen-2-yl)phenyl)propyl)triphenylphosphonium bromide]	–	–	–	–	4 to 25	1.33
